{"source": "patent US12077503B2", "about": "“Substituted cyclic amides and their use as herbicides” (FMC CORPORATION, priority 2015, dated 2024)", "format_in_all_cases": "in vivo", "key": {"[1]": {"test_system": "giant foxtail (Setaria faberii)", "experiment": "Test A preemergence", "details": "Setaria faberi, pre-emergence, 240 h, read-out: Plant response rating, Foxtail, Giant", "summary_of_the_method": "(§1)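 Greenhouse, ~10 d after spray; visual injury vs untreated controls, 0 = no effect, 100 = complete control. Preemergence: directed soil spray over planted seeds. Postemergence: plants 2–10 cm, 1–2 leaf stage. Loam/sand blend. Compound in non-phytotoxic solvent with surfactant.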"}, "[2]": {"test_system": "wheat (Triticum aestivum)", "experiment": "Test A postemergence", "details": "Triticum aestivum, post-emergence, 240 h, read-out: Plant response rating, Wheat", "summary_of_the_method": "as §1"}, "[3]": {"test_system": "blackgrass (Alopecurus myosuroides)", "experiment": "Test A postemergence", "details": "Alopecurus myosuroides, post-emergence, 240 h, read-out: Plant response rating, Blackgrass", "summary_of_the_method": "as §1"}, "[4]": {"test_system": "ragweed (common ragweed, Ambrosia elatior)", "experiment": "Test A postemergence", "details": "Ambrosia artemisiifolia, post-emergence, 240 h, read-out: Plant response rating, Ragweed", "summary_of_the_method": "as §1"}, "Kochia (Kochia scoparia)": {"test_system": "Kochia (Kochia scoparia)", "experiment": "Test A postemergence", "details": "Bassia scoparia, post-emergence, 240 h, read-out: Plant response rating, Kochia", "summary_of_the_method": "as §1"}, "[5]": {"test_system": "Galium (catchweed bedstraw, Galium aparine)", "experiment": "Test A postemergence", "details": "Galium, post-emergence, 240 h, read-out: Plant response rating, Galium", "summary_of_the_method": "as §1"}, "[6]": {"test_system": "ryegrass, Italian (Italian ryegrass, Lolium multiflorum)", "experiment": "Test A postemergence", "details": "Lolium multiflorum, post-emergence, 240 h, read-out: Plant response rating, Ryegrass, Italian", "summary_of_the_method": "as §1"}, "corn (Zea mays)": {"test_system": "corn (Zea mays)", "experiment": "Test A postemergence", "details": "Zea mays, post-emergence, 240 h", "summary_of_the_method": "as §1"}, "[7]": {"test_system": "pigweed (Amaranthus retroflexus)", "experiment": "Test A postemergence", "details": "Amaranthus retroflexus, post-emergence, 240 h, read-out: Plant response rating, Pigweed", "summary_of_the_method": "as §1"}, "[8]": {"test_system": "giant foxtail (Setaria faberii)", "experiment": "Test A postemergence", "details": "Setaria faberi, post-emergence, 240 h, read-out: Plant response rating, Foxtail, Giant", "summary_of_the_method": "as §1"}, "[9]": {"test_system": "barnyardgrass (Echinochloa crus-galli)", "experiment": "Test A postemergence", "details": "Echinochloa crus-galli, post-emergence, 240 h, read-out: Plant response rating, Barnyardgrass", "summary_of_the_method": "as §1"}, "rice (Oryra sativa)": {"test_system": "rice (Oryra sativa)", "experiment": "Test B flooded paddy test", "details": "Flood, 250 g ai/ha; 0 to 100 scale where 0 is no effect and 100 is complete control; 13 to 15 d", "summary_of_the_method": "(§2)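 Greenhouse paddy pots with 2-leaf stage plants received compound by direct addition to floodwater 3 cm deep, kept at that level. Scored visually at 13–15 d versus controls (0 no effect; 100 complete control).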"}, "[10]": {"test_system": "sedge, umbrella (small-flower umbrella sedge, Cyperus difformis)", "experiment": "Test B flooded paddy test", "details": "Flood, 250 g ai/ha; 0 to 100 scale where 0 is no effect and 100 is complete control; 13 to 15 d", "summary_of_the_method": "as §2"}, "[11]": {"test_system": "barnyardgrass (Echinochloa crus-galli)", "experiment": "Test B flooded paddy test", "details": "Flood, 250 g ai/ha; 0 to 100 scale where 0 is no effect and 100 is complete control; 13 to 15 d", "summary_of_the_method": "as §2"}, "[12]": {"test_system": "ducksalad (Heteranthera limosa)", "experiment": "Test B flooded paddy test", "details": "Flood, 250 g ai/ha; 0 to 100 scale where 0 is no effect and 100 is complete control; 13 to 15 d", "summary_of_the_method": "as §2"}, "[13]": {"details": "125 g ai/ha, postemergence, visual rating after approx. 10 d, 0 to 100 scale (0 no effect, 100 complete control)"}, "[14]": {"details": "Postemergence, 500 g ai/ha, 0 to 100 scale where 0 is no effect and 100 is complete control"}}, "data": [{"smiles": "CN1C[C@H](c2ccc(C(F)(F)F)cc2)[C@@H](C(=O)Nc2ccccc2F)C1=O", "note": "[Compound 622, (3S,4S)—N-(2-fluorophenyl)-1-methyl-2-oxo-4-[4-(trifluoromethyl)phenyl]-3-pyrrolidinecarboxamide]", "values": [{"measurement": "pest or weed control at 125 g/ha", "setting": "[1]; 125 g ai/ha, Preemergence, visual injury after approximately 10 d, 0 to 100 scale where 0 is no effect and 100 is complete control", "value": 90, "unit": "%"}, {"measurement": "pest or weed control at 500 g/ha", "setting": "[1]; 500 g ai/ha, preemergence, 0 to 100 scale, 0 = no effect, 100 = complete control", "value": 90, "unit": "%"}, {"measurement": "plant injury at 125 g/ha", "setting": "[2]; [13]", "value": 30, "unit": "%"}, {"measurement": "plant injury at 500 g/ha", "setting": "[2]; [14]", "value": 70, "unit": "%"}, {"measurement": "pest or weed control at 125 g/ha", "setting": "[3]; [13]", "value": 30, "unit": "%"}, {"measurement": "pest or weed control at 500 g/ha", "setting": "[3]; [14]", "value": 60, "unit": "%"}, {"measurement": "pest or weed control at 125 g/ha", "setting": "[4]; [13]", "value": 0, "unit": "%"}, {"measurement": "pest or weed control at 500 g/ha", "setting": "[4]; [14]", "value": 40, "unit": "%"}, {"measurement": "pest or weed control at 125 g/ha", "setting": "Kochia (Kochia scoparia); [13]", "value": 40, "unit": "%"}, {"measurement": "pest or weed control at 500 g/ha", "setting": "Kochia (Kochia scoparia); [14]", "value": 60, "unit": "%"}, {"measurement": "pest or weed control at 125 g/ha", "setting": "[5]; [13]", "value": 60, "unit": "%"}, {"measurement": "pest or weed control at 500 g/ha", "setting": "[5]; [14]", "value": 70, "unit": "%"}, {"measurement": "pest or weed control at 125 g/ha", "setting": "[6]; [13]", "value": 30, "unit": "%"}, {"measurement": "pest or weed control at 500 g/ha", "setting": "[6]; [14]", "value": 50, "unit": "%"}, {"measurement": "Corn plant response rating (crop injury, 0 = no effect, 100 = complete kill) at 125 g/ha", "setting": "corn (Zea mays); [13]", "value": 50, "unit": "%"}, {"measurement": "Corn plant response rating (crop injury, 0 = no effect, 100 = complete kill) at 500 g/ha", "setting": "corn (Zea mays); [14]", "value": 70, "unit": "%"}, {"measurement": "pest or weed control at 125 g/ha", "setting": "[7]; [13]", "value": 40, "unit": "%"}, {"measurement": "pest or weed control at 500 g/ha", "setting": "[7]; [14]", "value": 50, "unit": "%"}, {"measurement": "pest or weed control at 125 g/ha", "setting": "[8]; [13]", "value": 80, "unit": "%"}, {"measurement": "pest or weed control at 500 g/ha", "setting": "[8]; [14]", "value": 90, "unit": "%"}, {"measurement": "pest or weed control at 125 g/ha", "setting": "[9]; [13]", "value": 90, "unit": "%"}, {"measurement": "pest or weed control at 500 g/ha", "setting": "[9]; [14]", "value": 90, "unit": "%"}, {"measurement": "Plant response rating, Rice", "setting": "rice (Oryra sativa)", "value": 0}, {"measurement": "Plant response rating, Sedge, Umbrella", "setting": "[10]", "value": 0}, {"measurement": "Plant response rating, Barnyardgrass", "setting": "[11]", "value": 70}, {"measurement": "Plant response rating, Ducksalad", "setting": "[12]", "value": 100}]}]}
